Measured values as given in patent US4175081A, “5-Substituted thiadiazole ureas” (priority 1977, dated 1979).

Tests used:
[1] = test system: Cotton (CT); assay: Pre-emergence herbicide test; format: in vivo, Gossypium hirsutum var. DPL smooth leaf; conditions: Gossypium hirsutum, 336 h, two weeks after treatment; for pest or weed control at 8966.8 g/ha: 8 lb/acre
In short: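 Crop and weed species seeded one day before treatment, then sprayed pre-emergence at 8 lbs actual compound per acre (also 4 lbs/acre formulations) in 38 gallons per acre. Pots kept in greenhouse with sub-irrigation only; injury or control visually rated two weeks after treatment.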

[2] = test system: Bean (BN); assay: Pre-emergence herbicide test; format: in vivo, Phaseolus vulgaris var. Black Valentine; conditions: Phaseolus vulgaris, 336 h, two weeks after treatment; for pest or weed control at 8966.8 g/ha: 8 lb/acre
In short: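 Black Valentine bean was seeded in potting soil one day before spraying. Compound was applied pre-emergence at 8 lbs/acre (also 4 lbs/acre) in 38 gallons per acre. Plants were sub-irrigated and injury or control was rated visually after two weeks.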

[3] = test system: Yellow foxtail grass (YF); assay: Pre-emergence herbicide test; format: in vivo, Setaria glauca; conditions: Setaria, 336 h, two weeks after treatment; for pest or weed control at 8966.8 g/ha: 8 lb/acre
Method: (§1) Yellow foxtail grass (YF)--Setaria glauca
(§2) All crop and weed species were planted individually in 3' plastic pots containing potting soil. Four seeds each of corn, cotton, and snapbeans were seeded to a depth equal to the diameter of the seed. All other species were surface seeded and sprinkled with screened soil in an amount sufficient to cover the seed. Immediately after planting, all pots were watered by sub-irrigation in greenhouse trays. Pots for the pre-emergence phase were seeded one day before treatment.
(§3) Compounds were tested at rates of application equivalent to 8 lbs. of actual compound per acre in a spray volume of 38 gallons per acre. Spray hood constants required to deliver the above volume are as follows:
(§4) Formulations for spray applications were prepared in 50 ml volumes with the following three components:
(§5) Formulations for the 4 lbs/acre rate were prepared by adjusting the amount of active ingredient accordingly.
(§6) Spray applications were made in a hood containing a removable belt and fixed spray nozzle. For passage through the spray hood, one pot of each specie (pre-emergence phase) was placed on the rear half of the flat. Treatments were removed to the greenhouse after spraying. Watering during the observation period was done only by sub-irrigation.
(§7) Two weeks after treatment, pre- and post-emergence injury or control was visually rated, and the results were as shown in the following tables. Pre-emergence data are provided in TABLE III and post-emergence data are provided in TABLE IV, for compounds having the formula illustrated in TABLE I. Correspondingly, pre-emergence and post-emergence data, respectively, are set forth in TABLES V AND VI, for compounds having the formula illustrated in TABLE II.

[4] = test system: Turnip (TP); assay: Post-emergence herbicide test; format: in vivo, Brassica sp.; conditions: Brassica rapa, post-emergence, 336 h, two weeks after treatment; for pest or weed control at 8966.8 g/ha: 8 lb/acre
In short: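 A greenhouse post-emergence herbicide test on turnip. Seeds were sown on the surface of potting soil in 3' plastic pots, lightly covered with screened soil and watered from below. Planting was timed so seedlings had 1 or 2 true leaves above the cotyledons at spraying, done in a hood with a fixed nozzle. Control or injury was scored by eye after two weeks.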

[5] = test system: Crabgrass (CG); assay: Post-emergence herbicide test; format: in vivo, Digitaria sanquinalis; conditions: Digitaria sanguinalis, post-emergence, 336 h, two weeks after treatment; for pest or weed control at 8966.8 g/ha: 8 lb/acre
In short: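 Crabgrass (Digitaria sanquinalis) was surface seeded individually in 3' plastic pots of potting soil, covered with screened soil, and watered by sub-irrigation in greenhouse trays. Planting was staggered so seedlings reached the target stage together. Post-emergence sprays were applied in a hood with a removable belt and fixed nozzle, and control was visually rated two weeks after treatment.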

[6] = test system: Amaranth pigweed (PW); assay: Post-emergence herbicide test; format: in vivo, Amaranthus retroflexus; conditions: 336 h, two weeks after treatment; for pest or weed control at 8966.8 g/ha: 8 lb/acre
In short: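 Pot-grown pigweed was sprayed post-emergence at the 1–2 true-leaf stage with compound at rates equivalent to 8 lbs per acre (formulations also prepared for 4 lbs/acre) in 38 gallons per acre, using a hood with fixed nozzle. Plants were sub-irrigated in the greenhouse, and injury or control was rated visually two weeks after treatment.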

[7] = test system: Barnyard grass (BG); assay: Post-emergence herbicide test; format: in vivo; conditions: Echinochloa crus-galli, 336 h, two weeks after treatment; for pest or weed control at 8966.8 g/ha: 8 lb/acre
In short: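 Greenhouse pot-grown barnyard grass seedlings sprayed post-emergence at 8 lbs active compound per acre (some at 4 lbs/acre) in 38 gallons per acre, then sub-irrigated. Injury or control rated visually two weeks after treatment.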

[8] = test system: Johnson grass (JG); assay: Post-emergence herbicide test; format: in vivo, Sorgum helepense; conditions: Sorghum halepense, 336 h, two weeks after treatment; for pest or weed control at 8966.8 g/ha: 8 lb/acre
In short: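 Greenhouse pot-grown seedlings sprayed post-emergence at 8 lbs compound per acre (some at 4 lbs/acre) in 38 gallons per acre spray volume. Sub-irrigated thereafter. Injury/control rated visually two weeks after treatment.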

[9] = test system: Bean (BN); assay: Post-emergence herbicide test; format: in vivo, Phaseolus vulgaris var. Black Valentine; conditions: Phaseolus vulgaris, post-emergence, 336 h, two weeks after treatment; for pest or weed control at 8966.8 g/ha: 8 lb/acre
In short: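 Snapbean (Phaseolus vulgaris var. Black Valentine) was tested post-emergence. Four seeds were sown in 3' plastic pots of potting soil at a depth equal to the seed diameter, then sub-irrigated in greenhouse trays. Planting dates were staggered so plants were sprayed once primary leaves had expanded, with the growing point at the primary leaf nodes.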

[10] = test system: Johnson grass (JG); assay: Pre-emergence herbicide test; format: in vivo, Sorgum helepense; conditions: Sorghum halepense, 336 h, two weeks after treatment; for pest or weed control at 8966.8 g/ha: 8 lb/acre
In short: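 Pots seeded one day before spraying; compound applied pre-emergence at 8 lbs/acre (or 4 lbs/acre) in 38 gallons/acre spray volume. Sub-irrigated in greenhouse; injury/control rated visually two weeks after treatment.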

[11] = test system: Corn (CN); assay: Pre-emergence herbicide test; format: in vivo; conditions: Zea mays, 336 h, two weeks after treatment; for pest or weed control at 8966.8 g/ha: 8 lb/acre
In short: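 Four corn seeds per pot, sown at seed-diameter depth one day before spraying, got soil surface treatment at 8 lbs/acre (4 lbs/acre formulations also prepared) in 38 gallons/acre. Pots were greenhouse-held with sub-irrigation only. Injury or control was scored visually two weeks after treatment.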

[12] = test system: Corn (CN); assay: Post-emergence herbicide test; format: in vivo; conditions: Zea mays, 336 h, two weeks after treatment; for pest or weed control at 8966.8 g/ha: 8 lb/acre
In short: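 Greenhouse seedlings grown in potting soil and sprayed post-emergence at 8 lbs compound/acre (formulations also made for 4 lbs/acre) in 38 gallons/acre spray volume. Watering by sub-irrigation only. Injury or control rated visually two weeks after treatment.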

[13] = test system: Turnip (TP); assay: Pre-emergence herbicide test; format: in vivo, Brassica sp.; conditions: Brassica rapa, pre-emergence, 336 h, two weeks after treatment; for pest or weed control at 8966.8 g/ha: 8 lb/acre
In short: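 Turnip (Brassica sp.) seeds were surface sown in 3' plastic pots of potting soil, covered with a thin layer of screened soil, and sub-irrigated in greenhouse trays. Pots were seeded one day ahead of treatment, sprayed pre-emergence under a hood with a fixed nozzle and moving belt, then kept in the greenhouse.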

[14] = test system: Barnyard grass (BG); assay: Pre-emergence herbicide test; format: in vivo; conditions: Echinochloa crus-galli, 336 h, two weeks after treatment; for pest or weed control at 8966.8 g/ha: 8 lb/acre
In short: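 Barnyard grass surface-seeded in potting soil and sprayed pre-emergence one day after seeding, at 8 or 4 lb compound/acre in 38 gal/acre spray volume. Pots kept in greenhouse with sub-irrigation only; injury or control rated visually two weeks after treatment.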

[15] = test system: Yellow foxtail grass (YF); assay: Post-emergence herbicide test; format: in vivo, Setaria glauca; conditions: Setaria, 336 h, two weeks after treatment; for pest or weed control at 8966.8 g/ha: 8 lb/acre
Method: as §1, §2
Planting dates for the post-emergence phase were varied so that all seedlings would reach the desired stage of development simultaneously. The proper stage of seedling development for treatment in the post-emergence phase is as follows:
as §3, §4, §5, §6, §7

[16] = test system: Crabgrass (CG); assay: Pre-emergence herbicide test; format: in vivo, Digitaria sanquinalis; conditions: Digitaria sanguinalis, pre-emergence, 336 h, two weeks after treatment; for pest or weed control at 8966.8 g/ha: 8 lb/acre
In short: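 Crabgrass (Digitaria sanquinalis) was surface seeded in 3' plastic pots of potting soil, covered with screened soil, and watered by sub-irrigation in greenhouse trays. Pots were seeded one day before spraying in a hood with a moving belt and fixed nozzle. Plants stayed in the greenhouse on sub-irrigation, and pre-emergence control was rated visually two weeks after treatment.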

[17] = test system: Cotton (CT); assay: Post-emergence herbicide test; format: in vivo, Gossypium hirsutum var. DPL smooth leaf; conditions: Gossypium hirsutum, post-emergence, 336 h, two weeks after treatment; for pest or weed control at 8966.8 g/ha: 8 lb/acre
In short: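 Cotton (Gossypium hirsutum var. DPL smooth leaf) was grown in 3' plastic pots of potting soil, four seeds per pot, planted at a depth equal to the seed diameter and watered by sub-irrigation. At the stage of expanded cotyledons with the first true leaf 1' long, plants were sprayed post-emergence in a hood with a fixed nozzle over a moving belt. Percent control was rated visually two weeks later.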

[18] = test system: Amaranth pigweed (PW); assay: Pre-emergence herbicide test; format: in vivo, Amaranthus retroflexus; conditions: 336 h, two weeks after treatment; for pest or weed control at 8966.8 g/ha: 8 lb/acre
In short: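 Pigweed was surface-seeded in potted soil one day before spraying at 8 lbs compound per acre, or 4 lbs/acre, in 38 gallons per acre. Pots were kept in the greenhouse with sub-irrigation only; injury or control was rated visually two weeks after treatment.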

SMILES	pest or weed control at 8966.8 g/ha [1] [%]	pest or weed control at 8966.8 g/ha [2] [%]	pest or weed control at 8966.8 g/ha [3] [%]	pest or weed control at 8966.8 g/ha [4] [%]	pest or weed control at 8966.8 g/ha [5] [%]	pest or weed control at 8966.8 g/ha [6] [%]	pest or weed control at 8966.8 g/ha [7] [%]	pest or weed control at 8966.8 g/ha [8] [%]	pest or weed control at 8966.8 g/ha [10] [%]	pest or weed control at 8966.8 g/ha [11] [%]	pest or weed control at 8966.8 g/ha [12] [%]	pest or weed control at 8966.8 g/ha [13] [%]	pest or weed control at 8966.8 g/ha [14] [%]	pest or weed control at 8966.8 g/ha [15] [%]	pest or weed control at 8966.8 g/ha [16] [%]	pest or weed control at 8966.8 g/ha [17] [%]	pest or weed control at 8966.8 g/ha [18] [%]	pest or weed control at 8966.8 g/ha [9] [%]	other results
CN(C)C(=O)N(C)c1nnc(C(C)(C)C)s1 [Example 43]																			pest or weed control at 4483.4 g/ha ([1]; 4 lb/acre): 90%; pest or weed control at 4483.4 g/ha ([2]; 4 lb/acre): 90%; pest or weed control at 4483.4 g/ha ([3]; 4 lb/acre): 100%; pest or weed control at 4483.4 g/ha ([4]; 4 lb/acre): 100%; pest or weed control at 4483.4 g/ha ([5]; 4 lb/acre): 100%; pest or weed control at 4483.4 g/ha ([6]; 4 lb/acre): 100%; pest or weed control at 4483.4 g/ha ([7]; 4 lb/acre): 100%; pest or weed control at 4483.4 g/ha ([8]; 4 lb/acre): 100%; pest or weed control at 4483.4 g/ha ([9]; 4 lb/acre): 100%; pest or weed control at 4483.4 g/ha ([10]; 4 lb/acre): 90%; pest or weed control at 4483.4 g/ha ([11]; 4 lb/acre): 90%; pest or weed control at 4483.4 g/ha ([12]; 4 lb/acre): 100%; pest or weed control at 4483.4 g/ha ([13]; 4 lb/acre): 100%; pest or weed control at 4483.4 g/ha ([14]; 4 lb/acre): 100%; pest or weed control at 4483.4 g/ha ([15]; 4 lb/acre): 100%; pest or weed control at 4483.4 g/ha ([16]; 4 lb/acre): 100%; pest or weed control at 4483.4 g/ha ([17]; 4 lb/acre): 100%; pest or weed control at 4483.4 g/ha ([18]; 4 lb/acre): 100%
CNC(=O)Nc1nnc(OC)s1 [Example 24]	10	60	10	60	30	90	20	20	10	30	20	10	10	20	10	70	60		
CSc1nnc(NC(=O)NC(C)C)s1 [Example 30]	10	50	10	40	20	50	20	20	10	10	20		10	20	20	70	10	100	
CNC(=O)Nc1nnc(-c2ccc(Cl)cc2)s1 [Example 71]	90	50	0	20	20	20	20	20	0	0	0	0	20	30	0	0		50	
